Assay results: patent US6602514B1, “Use of ectoine or ectoine derivatives in cosmetic formulations” (Merck Patent GmbH, priority 1998, dated 2003)

Key:
[1] = test system: skin barrier (forearm skin of the subjects); assay: In vivo determination of the transepidermal water loss (TEWL) following damage to the skin barrier by SDS treatment; set-up: species or system human; settings: N=5; for TEWL after SDS stress: then 2% SDS, occlusion 24 h; for TEWL after ectoin treatment for 1 week: 2 mg/cm^2 twice daily, forearm; for TEWL before treatment: baseline, 22° C., 60% humidity
Method: Using the skincare creams (0/W) comprising ectoin described in. Example 4, an in vivo determination of the transepidermal water loss (TEWL) following damage to the skin barrier by SDS treatment is carried out. Firstly, the skin of the subjects (N=5) on the forearm is treated for one week twice daily with the O/W emulsion (2 mg/cm^2) comprising 2% and 5% of ectoin and an emulsion without ectoin (placebo). In order to increase the TEWL artificially as a result of damage to the horny barrier, the skin is then treated with 80 μl of sodium dodecyl sulfate (SDS; 2% in water) in an aluminum chamber with occlusion for 24 h. The TEWL determination is carried out in a climatically controlled room at 22° C. and an atmospheric humidity of 60% using a TM210 TEWA meter. […] The values for FIG. 1 are given in Tab. 1.

human erythrocytes = assay: RBC test: membrane-stabilizing action on ectoin pretreated erythrocytes against SDS; type: cell-based
Method: To determine the cell membrane- and protein-damaging action of surfactants, the RBC Test can, for example, be used. For this, the erythrocytes are incubated e.g. with sodium dodecyl sulfate (SDS), for example for a period of 10 minutes. SDS destabilizes the membrane of untreated cells such that the cells are partially lysed and their contents such as the hemoglobin are released. The hemoglobin released during cell-wall damage serves as an indicator for the spectrophotometric determination of the membrane damage by SDS. By reference to the hemoglobin released, it is possible to determine the number of destroyed erythrocytes.
Using an aqueous ectoin solution buffered in PBS buffer (22.2 mmol/l of disodium hydrogenphosphate, 5.6 mmol/l of potassium dihydrogenphosphate, 123.3 mmol/l of sodium chloride and 10 mmol/l of glucose), a determination of the membrane-stabilizing action of ectoin pretreated human erythrocytes against SDS is carried out. The RBC test is used here. The percentage membrane stabilization of cells pretreated with ectoin is determined.
(§1) Human erythrocytes (2×10^8 cells/ml) are treated for 1 hour with 0%, 0.1%, 0.5%, 1% and 5% of ectoin. The cells are then stressed for 10 min with 0 to 0.04% SDS solution. Then, spectrophotometry is used to determine how many cells have been lysed by reference to the free hemoglobin content. […] The experiment is carried out N=5 times.
as §1, with “In addition, human” for “Human”, “treated with 1% of ectoin” for “treated”, “0 (control), 6, 18” for “1 hour with 0%, 0.1%, 0.5%, 1%”, “24 hours.” for “5% of ectoin.”, “0.04% of” for “0.04%”

## CC1=N[C@H](C(=O)O)CCN1 [ectoin, (S)-1,4,5,6-tetrahydro-2-methyl-4-pyrimidecarboxylic acid]
[1]; O/W emulsion with 2% of ectoin for 1 week
  TEWL after SDS stress: 14.2 g/m^2/h
[1]; O/W emulsion with 2% of ectoin
  TEWL after ectoin treatment for 1 week: 5.6 g/m^2/h
[1]; O/W emulsion with 5% of ectoin for 1 week
  TEWL after SDS stress: 10.8 g/m^2/h
[1]; O/W emulsion with 5% of ectoin
  TEWL after ectoin treatment for 1 week: 5.6 g/m^2/h
[1]; test area for the O/W emulsion with 2% of ectoin
  TEWL before treatment: 5.6 g/m^2/h
[1]; test area for the O/W emulsion with 5% of ectoin
  TEWL before treatment: 5.1 g/m^2/h
Human erythrocytes; 0.1%, 0.5%, 1%, 5% of ectoin, 1 hour, FIG. 3
  dependence of the protective effect on ectoin concentration: The higher the ectoin concentration, the greater the protective effect
Human erythrocytes; 1% of ectoin for 6, 18, 24 hours, FIG. 4
  dependence of the protective effect on duration of pretreatment: The longer the cells are pretreated with ectoin, the greater the protective effect
Human erythrocytes; 1 hour pretreatment with 0.1-5% of ectoin, 10 min 0 to 0.04% SDS, FIG. 3
  protection of erythrocytes against membrane damage by SDS: protects the cells against damage by SDS
